From paper PMC11190158, “Study on the design, synthesis, and activity of anti-tumor staple peptides targeting MDM2/MDMX” (Frontiers in Chemistry, 2024)
pIC50: −log10 of the molar value. Converted amounts (≈) assume the structure as drawn. “Also recorded” adds a separate entry of the source. Positions of bridges follow the written chain, without caps; N, C: chain ends. Non-standard residues stand in square brackets, D forms with d. Residues, ends and D or L forms follow the SMILES beside them. S5 = C=CCCC[C@](C)(N)C(=O)O

Key:
[1] = system: HCT116 p53^+/+; settings: 72 h
[2] = system: HCT116 p53^−/−; settings: 72 h
[3] = system: U251; assay: Apoptosis assay (Annexin V/PI, flow cytometry); format: cell-based, human; set-up: LR / UR / LR+UR: unit not given here; settings: for LR+UR: total apoptosis
Description: (§1) Fluorescent probes were used to detect normal viable cells, apoptotic cells, and necrotic cells by double labeling of cells, and the morphological characteristics of the apoptotic cells were explored. A Petri dish with 8–90% confluence was taken from the incubator. Tumor cells were collected, and the cells were counted under the microscope through the cell slide. A cell suspension of the appropriate concentration was prepared. Different concentrations of peptide samples were added according to the experimental group. Three compound wells were set up in each group; the control group was set up without peptides, and the blank group was set up without cells. Then, 300 μL of Binding Buffer was added after 24 h of dosing, and 2 μL of Annexin V was added to each tube, pipetted to mix it well, and then incubated at room temperature in the dark for 15 min. Then, 2 μL of PI solution was added before placing it on the machine, and one tube without dye was used as a negative control. On-machine assays were performed with flow cytometry. […] Total apoptosis = LR region + UR region.

[4] = system: U87 MG
[5] = circular dichroism; settings: phosphate buffer (PB); pH 7.2; ns °C; 10-50 (printed mmol/L, probably uM)
[6] = system: U251
[7] = system: U87 MG; assay: Apoptosis assay (Annexin V/PI, flow cytometry); format: cell-based, human; set-up: LR / UR / LR+UR: unit not given here; settings: for LR+UR: total apoptosis
Description: as §1, with “Then, 300 μL of Binding Buffer was added after 24 h of dosing, and 2 μL of Annexin V was added to each tube, pipetted to mix it well, and then incubated at room temperature in the dark for 15 min.” left out

[8] = Circular dichroism, degree of helicity; format: physicochemical; settings: CD, PB pH 7.2, 10–50 mmol/L peptide, ambient temperature, 1-mm path length, 185–255 nm
Description: The staple peptides were soluble in PB with a pH of 7.2 at a concentration of 10–50 mmol/L. CD experiments were performed using a Jasco J-715 Spectropolarimeter at ambient temperature. A quartz cuvette with a 1-mm path length was used for the spectrum collection (wavelength, 185–255 nm; step resolution, 0.0001 mm; speed, 1.2 μm/h; accumulations, 6; and bandwidth, 0.0001 mm). We calculated the helicity of each peptide using Eq.

[9] = system: U251; assay: Apoptosis assay (Annexin V/PI, flow cytometry); format: cell-based, human; settings: U251, 20 μM, 36 h (legend; method 24 h), mean
[10] = system: tumor cells; assay: Cytotoxicity / cell viability assay (CCK-8), cell line not given; format: cell-based, human; settings: for anti-proliferative / tumor suppressive activity (in words): HCT116 p53^+/+, HCT116 p53−/−, U87 and U251 cell viability experiments, versus template straight-chain peptide; for concentration at which in vitro anti-tumor activity was exhibited: compared to linear peptide M3-1, cell line not named
Description: Human colon cancer cell lines HCT116 p53^+/+, HCT116 p53^−/−, U87 MG, and U251 were maintained in McCoy’s 5A Medium supplemented with 10% heat-inactivated FCS and 1% penicillin–streptomycin at 37°C, 5% CO2, and under complete humidification conditions. The cells (3×10^3 cells/well) were inoculated in 96-well plates and treated with different concentrations of polypeptides for 72 h. The absorbance at 450 nm was then measured using the CCK-8 Kit, and the percentage of cell survival was calculated based on the ratio of the sample well to the reference well A450.

[11] = system: MDM2; set-up: method as in 2 sources, one per row (each row's own in cited_ref): ref Zhan and Lu, 2011; Brown et al., 2013; Wade et al., 2013 ||| ref Zhan et al., 2012a; Zhan et al., 2012b; Li et al., 2021; settings: in words, surface plasmon resonance and fluorescence polarization, ref Zhan et al., 2012a, 2012b, Li et al., 2021; cited from earlier work
[12] = system: MDMX; set-up: method as in 2 sources, one per row (each row's own in cited_ref): ref Zhan and Lu, 2011; Brown et al., 2013; Wade et al., 2013 ||| ref Zhan et al., 2012a; Zhan et al., 2012b; Li et al., 2021; settings: in words, surface plasmon resonance and fluorescence polarization, ref Zhan et al., 2012a, 2012b, Li et al., 2021; cited from earlier work
[13] = U251, 5 μM, sample 9 (replicate 1)
[14] = U251, 5 μM, sample 10 (replicate 2)
[15] = U251, 10 μM, sample 11 (replicate 1)
[16] = U251, 10 μM, sample 12 (replicate 2)
[17] = U251, 20 μM, sample 13 (replicate 1)
[18] = U251, 20 μM, sample 14 (replicate 2)
[19] = 20 μM, 36 h (legend; method 24 h), Annexin V/PI, mean

Compound `CSCC[C@H](NC(=O)[C@H](CC(C)C)NC(=O)[C@]1(C)CCCC=CCCC[C@](C)(NC(=O)[C@H](CC(C)C)NC(=O)[C@H](Cc2ccccc2)NC(=O)[C@@H](NC(=O)[C@H](CC(C)C)NC(=O)[C@H](CCCCN)NC(C)=O)[C@@H](C)O)C(=O)N[C@@H](Cc2ccc(O)cc2)C(=O)N[C@@H](Cc2c[nH]c3ccccc23)C(=O)N[C@@H](C)C(=O)N1)C(=O)N[C@@H](CCC(N)=O)C(=O)N[C@@H](CCCCN)C(N)=O` [SM3-4] (Ac-KLTFL[S5]YWA[S5]LMQK-NH2; staple 6-10) has a pIC50 [1] of 4.11, a pIC50 [2] of 4.48 and an LR [3, 13] of 0.89. For the same compound, the UR [3, 13] was 2.73, the “LR+UR” value [3, 13] was 3.62 and the LR [3, 14] was 0.47. For the same compound, the UR [3, 14] was 1.92, the “LR+UR” value [3, 14] was 2.39 and the LR [3, 15] was 1.47. The UR [3, 15] was 1.92, the “LR+UR” value [3, 15] was 3.39 and the LR [3, 16] was 1.12. The UR [3, 16] was 1.94, the “LR+UR” value [3, 16] was 3.06 and the LR [3, 17] was 6.85. The UR [3, 17] was 8.8, the “LR+UR” value [3, 17] was 15.65 and the LR [3, 18] was 4.92. For the same compound, the UR [3, 18] was 13.66, the “LR+UR” value [3, 18] was 18.58 and the “apoptotic effect (in words)” value ([3]; U251, 5, 10 and 20 μM) was “significant apoptotic effect”. For the same compound, the pIC50 ([4]; 72 h) was 5.11, the minimum inhibitory concentration ([4]; 72 h) was 8 µM (≈ 14.7 µg/mL) and the helicity [5] was 29%. The pIC50 ([6]; 72 h) was 4.83, the minimum inhibitory concentration ([6]; 72 h) was 16 µM (≈ 29.3 µg/mL) and the LR ([7]; 5 μM, sample 1 (replicate 1)) was 1.25. For the same compound, the UR ([7]; 5 μM, sample 1 (replicate 1)) was 3.07, the “LR+UR” value ([7]; 5 μM, sample 1 (replicate 1)) was 4.32 and the LR ([7]; 5 μM, sample 2 (replicate 2)) was 1.04. The UR ([7]; 5 μM, sample 2 (replicate 2)) was 3.27, the “LR+UR” value ([7]; 5 μM, sample 2 (replicate 2)) was 4.31 and the LR ([7]; 10 μM, sample 3 (replicate 1)) was 1.11. For the same compound, the UR ([7]; 10 μM, sample 3 (replicate 1)) was 6.12, the “LR+UR” value ([7]; 10 μM, sample 3 (replicate 1)) was 7.23 and the LR ([7]; 10 μM, sample 4 (replicate 2)) was 2.02. For the same compound, the UR ([7]; 10 μM, sample 4 (replicate 2)) was 3.16, the “LR+UR” value ([7]; 10 μM, sample 4 (replicate 2)) was 5.18 and the “LR: apoptotic cells” value [7, 19] was 29.91%. The “UR: dead cells” value [7, 19] was 42.285%, the LR ([7]; 20 μM, sample 5 (replicate 1)) was 26.96 and the UR ([7]; 20 μM, sample 5 (replicate 1)) was 37.58. The “LR+UR” value ([7]; 20 μM, sample 5 (replicate 1)) was 64.54, the LR ([7]; 20 μM, sample 6 (replicate 2)) was 32.86 and the UR ([7]; 20 μM, sample 6 (replicate 2)) was 46.99. The “LR+UR” value ([7]; 20 μM, sample 6 (replicate 2)) was 79.85, the “apoptotic effect (in words)” value ([7]; 5, 10 and 20 μM) was “significant apoptotic effect” and the helicity [8] was 28.96%. For the same compound, the “LR: apoptotic cells” value [9] was 5.885%, the “UR: dead cells” value [9] was 11.23% and the “anti-proliferative / tumor suppressive activity (in words)” value [10] was “significantly improved; also recorded: strongest anti-proliferative activity”. The “concentration at which in vitro anti-tumor activity was exhibited” value (“concentration at which” for short) [10] was 25 µM.
`CSCC[C@@H]1NC(=O)[C@H](CC(C)C)NC(=O)[C@H](CCC(N)=O)NC(=O)[C@@](C)(NC(=O)[C@H](Cc2c[nH]c3ccccc23)NC(=O)[C@H](Cc2ccc(O)cc2)NC(=O)[C@H](CCC(=O)O)NC(=O)[C@H](CC(C)C)NC(=O)[C@H](Cc2ccccc2)NC(=O)[C@@H](NC(=O)[C@H](CC(C)C)NC(=O)[C@H](CCCCN)NC(C)=O)[C@@H](C)O)CCCC=CCCC[C@@](C)(C(=O)N[C@@H](CCCCN)C(N)=O)NC1=O` [SM3-5] (Ac-KLTFLEYW[S5]QLM[S5]K-NH2; staple 9-13) gave a pIC50 [1] of 4.56, a pIC50 [2] of 4.56 and a pIC50 ([4]; 72 h) of 4.51. For the same compound, the “concentration at which” value ([4]; U87 MG tumor cells, CCK-8) was 25 µM, the helicity [5] was 42.9% and the pIC50 ([6]; 72 h) was 4.44. The “concentration at which” value ([6]; U251 tumor cells, CCK-8) was 50 µM, the helicity [8] was 42.85% and the “anti-proliferative / tumor suppressive activity (in words)” value [10] was “significantly improved”. For the same compound, the “concentration at which” value [10] was 25 µM.
In the case of LTFLEYWAQLMQ [PMI-M3], the “binding to MDM2” value [11] is listed as “binds well” and the “binding to MDMX” value [12] is listed as “binds well”.
